# Key:
# [1] = Compound solubility in water
# acid ceramidase = biological target: T1, acid ceramidase (Homo sapiens, UniProt Q13510); experiment: Acid ceramidase inhibition, biochemical fluorescent assay with cell lysates overexpressing acid ceramidase, substrate Rbm14-12; conditions: substrate Rbm14-12 6.3 μM
# T1 construct: Cell lysates overexpressing acid ceramidase were used as the enzyme source; expressed in transfected cells
# T1 sequence (Q13510 22-395): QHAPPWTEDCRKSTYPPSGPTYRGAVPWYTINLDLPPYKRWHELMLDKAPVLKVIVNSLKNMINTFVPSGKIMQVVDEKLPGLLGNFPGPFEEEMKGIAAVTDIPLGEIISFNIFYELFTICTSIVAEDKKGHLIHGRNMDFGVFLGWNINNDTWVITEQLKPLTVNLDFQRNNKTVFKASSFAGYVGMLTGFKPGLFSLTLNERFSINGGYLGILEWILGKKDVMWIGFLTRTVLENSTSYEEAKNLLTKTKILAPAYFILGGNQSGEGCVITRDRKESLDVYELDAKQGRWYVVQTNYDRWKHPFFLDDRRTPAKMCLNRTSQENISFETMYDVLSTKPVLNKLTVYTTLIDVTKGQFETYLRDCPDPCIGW
# How it was run: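 IC50 derived by four-parameter fitting of fluorescence (ex360 nm, em446 nm) produced after 1 hr in methanol/NaIO4/glycine stop buffer, pH 10.6. Reaction: 6.3 μM Rbm14-12, 1 hr RT, following 1 hr RT compound preincubation with 10 μg overexpressing-cell lysate protein in pH 4.5 NaAC/NaCl buffer.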
# [2] = pH 4.5, 1 hr preincubation at RT
SMILES,solubility [1] [µg/mL],IC50 (acid ceramidase; [2]) [nM],IC50 (acid ceramidase; pH 4.5) [nM]
"CN(C)C1CN(c2cccc3c2ncn3C(=O)NCCC#Cc2ccccc2)C1 [Example 364, 4-(3-(Dimethylamino)azetidin-1-yl)-N-(4-phenylbut-3-ynyl)-1H-benzo[d]imidazole-1-carboxamide]",17,< 200,
"O=C(NCCCc1ccccc1)n1cnc2ccccc21 [Example 5, N-(3-Phenylpropyl)-1H-benzo[d]imidazole-1-carboxamide]",13.8,< 200,
"CC(C)CCNC(=O)n1cnc2c(N3CCN(C)C(=O)C3)cccc21 [Example 163, N-iso-Pentyl-4-(4-methyl-3-oxopiperazin-1-yl)-1H-benzo[d]imidazole-1-carboxamide]",14,,200 to 1000
"CCCCNC(=O)n1c(=O)n(C)c2nc(-c3cncnc3)ccc21 [Example 84, N-Butyl-3-methyl-2-oxo-5-(pyrimidin-5-yl)-2,3-dihydro-1H-imidazo[4,5-b]pyridine-1-carboxamide]",0.9,200 to 1000,
"CN1CCN(c2cccc3c2ncn3C(=O)NCCOc2ccccc2)CC1 [Example 257, 4-(4-Methylpiperazin-1-yl)-N-(2-phenoxyethyl)-1H-benzo[d]imidazole-1-carboxamide]",19,,< 200
"CCCCNC(=O)n1cnc2cc(C(F)(F)F)ccc21 [Example 49a, N-Butyl-5-(trifluoromethyl)-1H-benzo[d]imidazole-1-carboxamide]",15.6,< 200,
"CCn1c(=O)n(C(=O)NCCc2ccccc2)c2ncccc21 [Example 127, 1-Ethyl-2-oxo-N-phenethyl-1H-imidazo[4,5-b]pyridine-3(2H)-carboxamide]",23,200 to 1000,
"COc1nc2ccccc2n1C(=O)NCCCCn1ccc(C(C)(C)C)n1 [Example 187, N-(4-(3-(tert-Butyl)-1H-pyrazol-1-yl)butyl)-2-methoxy-1H-benzo[d]imidazole-1-carboxamide]",22,,200 to 1000
"CN1CC2CCC1CN2c1cccc2c1ncn2C(=O)NCCC1CCC(F)(F)C1 (centres unmarked) [Example 292, N-(2-(3,3-Difluorocyclopentyl)ethyl)-4-(5-methyl-2,5-diazabicyclo[2.2.2]octan-2-yl)-1H-benzo[d]imidazole-1-carboxamide]",36,,200 to 1000
"CC(C)CCNC(=O)n1cnc2c(N3CCN(C)C(C)C3)cccc21 (centres unmarked) [Example 197, 4-(3,4-Dimethylpiperazin-1-yl)-N-iso-pentyl-1H-benzo[d]imidazole-1-carboxamide]",28,,200 to 1000
"CN1CC2CN(c3cccc4c3ncn4C(=O)NCCCc3ccccc3)CC2C1 (centres unmarked) [Example 266, 4-(5-Methylhexahydropyrrolo[3,4-c]pyrrol-2(1H)-yl)-N-(3-phenylpropyl)-1H-benzo[d]imidazole-1-carboxamide]",34,,< 200
"CN1CCN(c2cccc3c2ncn3C(=O)NCC#Cc2cccc(F)c2)CC1 [Example 337, N-(3-(3-Fluorophenyl)prop-2-yn-1-yl)-4-(4-methylpiperazin-1-yl)-1H-benzo[d]imidazole-1-carboxamide]",15,< 200,
"CCOc1nc2ccccc2n1C(=O)NCCc1ccccc1 [Example 36, 2-Ethoxy-N-phenethyl-1H-benzo[d]imidazole-1-carboxamide]",8.4,< 200,
"CN1CC(N2CC3CC2CN3c2cccc3c2ncn3C(=O)NCCOc2ccccc2)C1 (centres unmarked) [Example 328, 4-(5-(1-Methylazetidin-3-yl)-2,5-diazabicyclo[2.2.1]heptan-2-yl)-N-(2-phenoxyethyl)-1H-benzo[d]imidazole-1-carboxamide]",41,,< 200
"O=C(NCCCc1ccccc1)n1cnc2c(N3CCC3)cccc21 [Example 279, 4-(Azetidin-1-yl)-N-(3-phenylpropyl)-1H-benzo[d]-imidazole-1-carboxamide]",1,,< 200
"COc1c(-c2cncnc2)ccc2c1ncn2C(=O)NCC(C)C [Example 75, N-isoButyl-4-methoxy-5-(pyrimidin-5-yl)-1H-benzo[d]imidazole-1-carboxamide]",27,200 to 1000,
"CN1CCN(CCOc2nc3ccccc3n2C(=O)NCC#Cc2ccccc2)CC1 [Example 348, 2-(2-(4-Methylpiperazin-1-yl)ethoxy)-N-(3-phenylprop-2-yn-1-yl)-1H-benzo[d]imidazole-1-carboxamide]",8,< 200,
"CC(C)C#CCNC(=O)n1cnc2c(N3CC4(CCN4C)C3)cccc21 [Example 359, 4-(1-Methyl-1,6-diazaspiro[3.3]heptan-6-yl)-N-(4-methylpent-2-yn-1-yl)-1H-benzo[d]imidazole-1-carboxamide]",23,200 to 1000,
"CCCCNC(=O)n1c(OCC)nc2ccccc21 [Example 97, N-Butyl-2-ethoxy-1H-benzo[d]imidazole-1-carboxamide]",10.9,200 to 1000,
"CC(C)CCNC(=O)n1cnc2c(N3CCN(CC4CC4)CC3)cccc21 [Example 152, 4-(4-(Cyclopropylmethyl)piperazin-1-yl)-N-iso-pentyl-1H-benzo[d]imidazole-1-carboxamide]",20,200 to 1000,
"COc1ccc(C#CCNC(=O)n2cnc3c(N4CCN(C)CC4)cccc32)cc1 [Example 339, N-(3-(4-Methoxyphenyl)prop-2-yn-1-yl)-4-(4-methylpiperazin-1-yl)-1H-benzo[d]imidazole-1-carboxamide]",16,< 200,
"CN1C[C@@H]2C[C@H]1CN2c1cccc2c1ncn2C(=O)NCCCc1ccccc1 [Example 244, 4-((1S,4S)-5-Methyl-2,5-diazabicyclo[2.2.1]heptan-2-yl)-N-(3-phenylpropyl)-1H-benzo[d]imidazole-1-carboxamide]",30,,< 200
"COc1nc2ccc(N3[C@@H]4CC[C@H]3COC4)cc2n1C(=O)NCCCc1ccccc1 [Example 237b, 6-((1R,5S)-3-oxa-8-azabicyclo[3.2.1]octan-8-yl)-2-methoxy-N-(3-phenylpropyl)-1H-benzo[d]imidazole-1-carboxamide]",5,,< 200
"O=C1CN(c2cccc3c2ncn3C(=O)NCCCc2ccccc2)CCN1C1CC1 [Example 252, 4-(4-Cyclopropyl-3-oxopiperazin-1-yl)-N-(3-phenylpropyl)-1H-benzo[d]imidazole-1-carboxamide]",1,,< 200

# Other lines, results leading:
solubility [1] [µg/mL],IC50 (acid ceramidase; [2]) [nM],IC50 (acid ceramidase; pH 4.5) [nM],SMILES
9.3,< 200,,"CCCCNC(=O)n1cnc2ccc(OC(F)(F)F)cc21 [Example 70a, N-Butyl-6-(trifluoromethoxy)-1H-benzo[d]imidazole-1-carboxamide]"
21.1,< 200,,"CCOc1nc2cccnc2n1C(=O)NCCCc1ccccc1 [Example 91b, 2-ethoxy-N-(3-phenylpropyl)-3H-imidazo[4,5-b]pyridine-3-carboxamide]"
28.7,> 1000,,"CCC(C)NC(=O)n1c(OC)nc2ccc(-c3cncnc3)cc21 (centres unmarked) [Example 109a, N-(sec-Butyl)-2-methoxy-6-(pyrimidin-5-yl)-1H-benzo[d]imidazole-1-carboxamide]"
27,,< 200,"C[C@H](CCNC(=O)n1cnc2c(N3CCN(C)CC3)cccc21)c1ccccc1 [Example 253b, (R)-4-(4-methylpiperazin-1-yl)-N-(3-phenylbutyl)-1H-benzo[d]imidazole-1-carboxamide]"
6,< 200,,"O=C(NCCc1ccccc1)n1cnc2ccc(C(F)(F)F)nc21 [Example 66a, N-Phenethyl-5-(trifluoromethyl)-3H-imidazo[4,5-b]pyridine-3-carboxamide]"
3,,< 200,"COc1nc2cc(N3CCOCC3)ccc2n1C(=O)NCCCC1(C(F)(F)F)CC1 [Example 183b, 2-methoxy-5-morpholino-N-(3-(1-(trifluoromethyl)cyclopropyl)propyl)-1H-benzo[d]imidazole-1-carboxamide]"
16,,< 200,"COCCOc1nc2ccc(N3CCOCC3)cc2n1C(=O)NCCCc1ccccc1 [Example 190b, 2-(2-methoxyethoxy)-6-morpholino-N-(3-phenylpropyl)-1H-benzo[d]imidazole-1-carboxamide]"
3,,< 200,"COc1nc2cc(F)c(N3CCOCC3)cc2n1C(=O)NCCc1ccccc1 [Example 334a, 5-Fluoro-2-methoxy-6-morpholino-N-(2-phenethyl)-1H-benzo[d]imidazole-1-carboxamide]"
1,,200 to 1000,"COc1nc2ccc(N3CCOCC3)cc2n1C(=O)NCC1(CC2CC2)CC1 [Example 229a, N-((1-(Cyclopropylmethyl)cyclopropyl)-methyl)-2-methoxy-6-morpholino-1H-benzo[d]imidazole-1-carboxamide]"
16,< 200,,"COc1nc2cc(N3CCOCC3)ccc2n1C(=O)NCCCc1ccccc1 [Example 134b, 2-methoxy-5-morpholino-N-(3-phenylpropyl)-1H-benzo[d]imidazole-1-carboxamide]"

# Reference: US20220380319A1 (Bial - R&D Investments, S.A., priority 2019, published 2022)
